Measured values from ChEMBL document CHEMBL2146425, “Solid-phase synthesis and biological evaluation of Joro spider toxin-4 from Nephila clavata” (J Nat Prod, 2011).

Assays:
[1] = target: Glutamate receptor 1 (Rattus norvegicus) (UniProt P19490); assay: Inhibition of rat GluA1 expressed in xenopus laevis oocytes assessed as inhibition of glutamate-evoked current at membrane potential of -60 mV at 100 uM by voltage-clamp electrophysiology; format: cell-based; conditions: Oocyte
[2] = target: Glutamate NMDA receptor; Grin1/Grin2a (Rattus norvegicus) (UniProt P35439+Q00959); assay: Inhibition of rat GluN1/2A expressed in xenopus laevis oocytes assessed as inhibition of glycine-evoked current at membrane potential of -60 mV at 100 uM by voltage-clamp electrophysiology; format: cell-based; conditions: Oocyte
Glutamate receptor 1 = Glutamate receptor 1 (Rattus norvegicus, UniProt P19490); assay: Inhibition of rat GluA1 expressed in xenopus laevis oocytes assessed as inhibition of glutamate-evoked current at membrane potential of -60 mV by voltage-clamp electrophysiology; format: cell-based, Oocyte
Sequence of Glutamate receptor 1 (P19490 whole entry): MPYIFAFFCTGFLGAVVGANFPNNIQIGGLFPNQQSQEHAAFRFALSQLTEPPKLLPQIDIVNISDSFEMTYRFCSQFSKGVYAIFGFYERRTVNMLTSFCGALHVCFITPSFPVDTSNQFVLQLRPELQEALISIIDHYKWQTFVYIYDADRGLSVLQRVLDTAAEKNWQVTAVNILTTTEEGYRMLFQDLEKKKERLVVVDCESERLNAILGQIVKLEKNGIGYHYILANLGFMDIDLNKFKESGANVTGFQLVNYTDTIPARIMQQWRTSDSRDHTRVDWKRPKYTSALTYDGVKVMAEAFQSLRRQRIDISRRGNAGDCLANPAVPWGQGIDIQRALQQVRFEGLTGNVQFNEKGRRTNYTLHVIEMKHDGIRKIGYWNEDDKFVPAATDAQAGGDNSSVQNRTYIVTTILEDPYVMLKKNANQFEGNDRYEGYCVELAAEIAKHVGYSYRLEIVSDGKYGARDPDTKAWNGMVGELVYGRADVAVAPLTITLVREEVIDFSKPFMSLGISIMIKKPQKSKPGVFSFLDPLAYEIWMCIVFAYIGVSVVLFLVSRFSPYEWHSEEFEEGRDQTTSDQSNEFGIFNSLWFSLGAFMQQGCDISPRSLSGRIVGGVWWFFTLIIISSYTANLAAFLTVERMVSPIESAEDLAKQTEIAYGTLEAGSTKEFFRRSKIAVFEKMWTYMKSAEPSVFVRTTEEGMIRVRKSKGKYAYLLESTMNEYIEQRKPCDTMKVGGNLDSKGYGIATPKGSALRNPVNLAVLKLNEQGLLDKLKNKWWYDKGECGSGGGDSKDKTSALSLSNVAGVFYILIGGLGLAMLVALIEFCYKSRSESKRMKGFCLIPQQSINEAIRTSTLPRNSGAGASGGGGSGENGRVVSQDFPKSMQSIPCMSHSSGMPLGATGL

[3] = target: Glutamate NMDA receptor; Grin1/Grin2a (Rattus norvegicus, UniProt P35439+Q00959); assay: Inhibition of rat GluN1/2A expressed in xenopus laevis oocytes assessed as inhibition of glycine-evoked current at membrane potential of -60 mV by voltage-clamp electrophysiology; format: cell-based, Oocyte

Sequence of Glutamate receptor 1 (Rattus norvegicus) (P19490 whole entry): as above

inhibition [1] [%] | inhibition [2] [%] | Compound | IC50 (Glutamate receptor 1) [nM] | IC50 [3] [nM]
25 | 25 | N=C(N)NCCC[C@H](N)C(=O)N[C@@H](CCCN)C(=O)NCCCCCNC(=O)[C@H](CC(N)=O)NC(=O)Cc1ccc(O)cc1O | – | –
– | – | N=C(N)NCCC[C@H](N)C(=O)NCCCNCCCNCCCCCNC(=O)[C@H](CC(N)=O)NC(=O)Cc1ccc(O)cc1O | 77 | 74
